Measurements from PubChem BioAssay (NCI).
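Tested at 5 concentrations; 48 h exposure; 96-well plates; endpoints linearly interpolated, else capped at highest concentration. GI50 = concentration required for 50% inhibition of growth. TGI denotes the concentration required for complete inhibition of growth.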

Key:
Assay in all cases: NCI-60 cell line screen, 48 h
NCI-H226 lung = system: NCI-H226 lung
NCI-H23 lung = system: NCI-H23 lung
NCI-H460 lung = system: NCI-H460 lung
NCI-H522 lung = system: NCI-H522 lung
NCI/ADR-RES ovarian = system: NCI/ADR-RES ovarian
OVCAR-3 ovarian = system: OVCAR-3 ovarian
OVCAR-4 ovarian = system: OVCAR-4 ovarian
OVCAR-5 ovarian = system: OVCAR-5 ovarian
OVCAR-8 ovarian = system: OVCAR-8 ovarian
PC-3 prostate = system: PC-3 prostate
SF-268 CNS = system: SF-268 CNS
SF-295 CNS = system: SF-295 CNS
SF-539 CNS = system: SF-539 CNS
SK-MEL-2 melanoma = system: SK-MEL-2 melanoma
SK-MEL-28 melanoma = system: SK-MEL-28 melanoma
SK-MEL-5 melanoma = system: SK-MEL-5 melanoma
SK-OV-3 ovarian = system: SK-OV-3 ovarian
SN12C renal = system: SN12C renal
SNB-19 CNS = system: SNB-19 CNS
SNB-75 CNS = system: SNB-75 CNS
SR leukemia = system: SR leukemia
SW-620 colon = system: SW-620 colon
T-47D breast = system: T-47D breast
TK-10 renal = system: TK-10 renal
U251 CNS = system: U251 CNS
UACC-62 melanoma = system: UACC-62 melanoma
UO-31 renal = system: UO-31 renal

Q: Which GI50 (NCI-H226 lung) does the source give for Cc1ccc(O)c(NC(=O)c2cccc(Nc3ccnc(C(F)(F)F)c3)c2)c1 here?
A: 894 nM

Q: What about the TGI (NCI-H226 lung) of the same molecule?
A: 23.4 µM

Q: What about the GI50 (NCI-H23 lung) of the same molecule?
A: 2270 nM

Q: And the TGI (NCI-H23 lung)?
A: 21.2 µM

Q: And the GI50 (NCI-H460 lung)?
A: 10.4 µM

Q: What about the TGI (NCI-H460 lung) of the same molecule?
A: 35.3 µM

Q: What about the GI50 (NCI-H522 lung) of the same molecule?
A: 1230 nM

Q: What about the TGI (NCI-H522 lung) of the same molecule?
A: 5.84 µM

Q: What about the GI50 (NCI/ADR-RES ovarian) of the same molecule?
A: 3 µM

Q: And the TGI (NCI/ADR-RES ovarian)?
A: 32.4 µM

Q: What about the GI50 (OVCAR-3 ovarian) of the same molecule?
A: 15.5 µM

Q: What about the TGI (OVCAR-3 ovarian) of the same molecule?
A: 41.6 µM

Q: What about the GI50 (OVCAR-4 ovarian) of the same molecule?
A: 2970 nM

Q: What about the TGI (OVCAR-4 ovarian) of the same molecule?
A: 31.2 µM

Q: And the GI50 (OVCAR-5 ovarian)?
A: 13 µM

Q: And the TGI (OVCAR-5 ovarian)?
A: 36 µM

Q: And the GI50 (OVCAR-8 ovarian)?
A: 5.52 µM

Q: And the TGI (OVCAR-8 ovarian)?
A: 19.7 µM

Q: What about the GI50 (PC-3 prostate) of the same molecule?
A: 11.4 µM

Q: And the TGI (PC-3 prostate)?
A: 38.5 µM

Q: What about the GI50 (SF-268 CNS) of the same molecule?
A: 13.3 µM

Q: And the TGI (SF-268 CNS)?
A: 39 µM

Q: And the GI50 (SF-295 CNS)?
A: 6.73 µM

Q: What about the TGI (SF-295 CNS) of the same molecule?
A: 27.6 µM

Q: What about the GI50 (SF-539 CNS) of the same molecule?
A: 12.5 µM

Q: What about the TGI (SF-539 CNS) of the same molecule?
A: 25.7 µM

Q: What about the GI50 (SK-MEL-2 melanoma) of the same molecule?
A: 5.28 µM

Q: And the TGI (SK-MEL-2 melanoma)?
A: 18.9 µM

Q: And the GI50 (SK-MEL-28 melanoma)?
A: 16 µM

Q: And the TGI (SK-MEL-28 melanoma)?
A: 31.2 µM

Q: And the GI50 (SK-MEL-5 melanoma)?
A: 2150 nM

Q: And the TGI (SK-MEL-5 melanoma)?
A: 14 µM

Q: What about the GI50 (SK-OV-3 ovarian) of the same molecule?
A: 16.6 µM

Q: What about the TGI (SK-OV-3 ovarian) of the same molecule?
A: 62 µM

Q: What about the GI50 (SN12C renal) of the same molecule?
A: 5.81 µM

Q: And the TGI (SN12C renal)?
A: 37.3 µM

Q: And the GI50 (SNB-19 CNS)?
A: 17.9 µM

Q: And the TGI (SNB-19 CNS)?
A: 69.8 µM

Q: And the GI50 (SNB-75 CNS)?
A: 11.4 µM

Q: And the TGI (SNB-75 CNS)?
A: 25.3 µM

Q: And the GI50 (SR leukemia)?
A: 1020 nM

Q: What about the TGI (SR leukemia) of the same molecule?
A: 16.4 µM

Q: And the GI50 (SW-620 colon)?
A: 14.6 µM

Q: What about the TGI (SW-620 colon) of the same molecule?
A: 38.5 µM

Q: And the GI50 (T-47D breast)?
A: 2290 nM

Q: And the TGI (T-47D breast)?
A: 24 µM

Q: And the GI50 (TK-10 renal)?
A: 19.1 µM

Q: And the TGI (TK-10 renal)?
A: 73.5 µM

Q: What about the GI50 (U251 CNS) of the same molecule?
A: 15.6 µM

Q: What about the TGI (U251 CNS) of the same molecule?
A: 37.6 µM

Q: What about the GI50 (UACC-62 melanoma) of the same molecule?
A: 3.82 µM

Q: What about the TGI (UACC-62 melanoma) of the same molecule?
A: 20.7 µM

Q: What about the GI50 (UO-31 renal) of the same molecule?
A: 3.03 µM

Q: And the TGI (UO-31 renal)?
A: 18.1 µM
